Measurements as given in patent US8450308B2 (Vitae Pharmaceuticals, Inc., priority 2008, dated 2013).
Like-named read-outs stand apart in the source and are kept apart here.

Key:
[1] = BACE cell assay: soluble Amyloid Beta 1-40 (Aβ 1-40) in culture media of H4-APPsw cells; format: cell-based
[2] = target: T1, truncated human beta-secretase (residues 1-458, His6-tagged at the C-terminus) (Homo sapiens, UniProt P56817); assay: BACE fluorescence quench assay; format: biochemical; conditions: in vitro enzyme activity, BACE fluorescence assay, pH 4.5; read-out: IC50
T1 construct: truncated human beta-secretase (residues 1-458, His6-tagged at the C-terminus); His6 (C); made in house; host or cells: insect cells D. melanogaster S2 (baculovirus expression system (so in the source))
T1 sequence (P56817 22-458): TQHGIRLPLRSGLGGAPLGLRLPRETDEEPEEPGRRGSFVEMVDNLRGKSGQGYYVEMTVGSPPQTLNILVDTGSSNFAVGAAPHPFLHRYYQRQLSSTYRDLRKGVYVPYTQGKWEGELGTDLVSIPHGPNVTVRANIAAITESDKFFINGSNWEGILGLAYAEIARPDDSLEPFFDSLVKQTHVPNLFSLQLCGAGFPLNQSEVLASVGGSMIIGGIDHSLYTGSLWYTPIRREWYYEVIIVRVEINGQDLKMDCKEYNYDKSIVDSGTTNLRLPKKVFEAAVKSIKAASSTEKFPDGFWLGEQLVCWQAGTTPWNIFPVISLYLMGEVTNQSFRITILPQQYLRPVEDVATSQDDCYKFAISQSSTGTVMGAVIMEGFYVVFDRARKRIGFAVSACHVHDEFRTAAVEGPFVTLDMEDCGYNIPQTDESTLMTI

[3] = in vitro cell activity, H4-APPsw cells, secreted Aβ 1-40, overnight treatment, read-out: IC50

| Structure (SMILES) | IC50 [1, 3] [µM] | IC50 [2] [µM] | IC50 [1] [µM] |
| --- | --- | --- | --- |
| CN1OC2(CC3(CCN(c4ncccn4)CC3)Oc3ccc(-c4cccc(C#N)c4)cc32)N=C1N (stereo not shown) [Compound 353] | 10 to 50 | 0.5 to 1 |  |
| CN1OC2(CC3(CCCN(c4ccccc4)C3)Oc3ccc(-c4cccc(C#N)c4)cc32)N=C1N (stereo not shown) [Compound 355] | 5 to 10 | 0.5 to 1 |  |
| COc1cccc2c1CCCC1(C2)CC2(N=C(N)N(C)O2)c2cc(Br)ccc2O1 (stereo not shown) [Compound 373] | 5 to 10 | 0.5 to 1 |  |
| CN1OC2(CC3(CCCc4ccccc43)Oc3ccc(-c4cc(F)cc(F)c4)cc32)N=C1N (stereo not shown) [Compound 402] |  | 1 to 5 | 10 to 50 |
| Cc1cc2c(cc1-c1cccc(C#N)c1)C1(CC3(CCCOC3)O2)N=C(N)N(C)O1 (stereo not shown) [Compound 432, 3-(3″-amino-2″,7-dimethyl-2″H-spiro[spiro[chroman-2,1′-(3-oxacyclohexane)]-4,5′-[1,2,4]oxadiazole]-6-yl)benzonitrile] | 10 to 50 | 5 to 10 |  |
